Measured values from patent publication EP4763841A1, “PYRIDAZINONE COMPOUND AND USE THEREOF” (Xi'an Xintong Pharmaceutical Research Co., Ltd., priority 2023, dated 2025).
“Also recorded” adds a separate entry of the source. Marks after values point to notes of the source that are not given here.

Tests used:
NASH model of B-DIO mice = assay: Efficacy test in NASH model of B-DIO mice (HFD + CCL4); format: in vivo; details: for area proportion of lipid droplets in the liver (oil red O) compared with the model group G2: Day 26, result in words (FIG. 8); for liver fibrosis (Sirius red) compared with the model group G2: Day 26, result in words (FIG. 9)
Text: An objective of this experiment was to evaluate the pharmacodynamics of compounds of the present invention by using an NASH model of B-DIO mice.
Five C57BL/6 mice on normal diet were assigned to an experimental group G1, and 25 B-DIO mice were randomly assigned to five experimental groups according to the body weight, with 5 mice in each group.
The day of grouping was Day-1, intraperitoneal injection was started on Day 0 in the groups G2-G6 for CCL4 modeling, the concentration of a modeling agent is 0.2 µl/g, the modeling frequency was twice a week, and administration was started on Day 0.
The body weight was measured twice a week after grouping. At the end of the experiment (Day 26), the mice were fasted for 4 h, and non-anticoagulated blood of the mice in the groups G1-G6 was collected and centrifuged, and a serum was taken for blood biochemical testing. Livers in the groups G1-G6 were collected and weighed, 20 mg of the liver was weighed for determination of TC and TG, and the remaining liver was placed in formalin for fixation for pathological observation.

[1] = Distribution of compounds in major organs after single gavage administration; format: in vivo, Sprague Dawley rats; details: gavage 5 mg/kg single dose, 1 h and 4 h, SD rats, result in words (FIG. 2)
Description: 0.25-0.3 ml of Systemic blood (jugular vein) was taken at each blood collection point to be added into an EDTA-K2 anticoagulant tube, uniform mixing was performed by gentle inversion, and the obtained mixture was stored on crushed ice for transport. Collection plan: PO blood collection point: 1 h and 4 h after administration. Animals were euthanized, tissues and organs were taken, and livers (0.3-0.5 g of liver was taken at a fixed position of a large lobe of liver), kidneys, and hearts were weighed, placed in 5 ml centrifuge tubes, quick-frozen on dry ice, and cryopreserved at -20°C.
A solvent (methanol:acetonitrile:water=25:25:50) was added for grinding and homogenization, and this process was performed rapidly by using a tissue grinder.
A solvent was added to the liver to 3 ml, one large steel ball and one small steel ball were added, and grinding was performed at 50 Hz for 60 s. Vortexing was performed for uniform mixing, and centrifugation was performed at 8000 rpm for 5 min. 0.3 ml of a supernatant was taken, a solvent was added until 3 ml, vortexing was performed for uniform mixing, and centrifugation was performed at 8000 rpm for 5 min. 0.1 ml of a supernatant was taken, 0.2 ml of acetonitrile was added, vortexing was performed for 30 s, and centrifugation was performed at 10000 rpm for 5 min. A supernatant was taken and sent for testing to analyze the drug content. […]

[2] = In vivo pharmacokinetic study of elimination phase half-life after single IV bolus; parameters: species or system Sprague Dawley rats; details: rat, blood, iv, I.V bolus, 5 mg/kg, rats, read-out: Elimination phase half-life (T1/2) (converted)
Description: Blood samples were collected from animals (IV group) before administration and at time points of 0.083 h, 0.25 h, 0.5 h, 1 h, 2 h, 4 h, 8 h, and 24 h after the end of administration. • Sample treatment: prior to blood collection, a centrifuge tube with 10 µl of EDTA-K2 and 1.2 mL of 50% acetonitrile-DMSO (a volume ratio of whole blood to 50% acetonitrile-DMSO is approximately 1:4) was placed in an ice box filled with crushed ice. The collected blood was added to the centrifuge tube, vortexed for at least 5 min, and then temporarily stored and transported in the ice box filled with crushed ice; and the blood was centrifuged at 12,000 g for 10 min at 4°C, wherein centrifugation was completed within 1 h after blood collection. A whole blood supernatant after centrifugation was transferred to a newly labeled tube, and transferred to -60°C or below for storage for analytical testing.

[3] = Comparison of compound metabolites by human liver microsome incubation (LC-MS/MS); format: in vitro ADME; details: 10 µM compound, human liver microsome 1.0 mg/mL, β-NADPH 1.0 mM, 37°C, 60 min
Description: The purpose of this experiment was to evaluate the comparison of the content of major metabolites of human liver microsome incubated compounds.
Sample treatment: a sample was precipitated with acetonitrile (ACN) containing 0.1% formic acid in a ratio of 1:2, and further centrifuged. A supernatant was dried with a nitrogen flow. A residue was reconstituted in […] of 10% ACN and 90% H2O containing 0.1% formic acid. […] of the reconstituted material was injected into an LC-MS/MS system for analysis.

[4] = liver, Day 26, 0.3 mg/kg I.G. Q.D., HFD+CCL4, mean±standard error
[5] = liver, Day 26, 1 mg/kg I.G. Q.D., HFD+CCL4, mean±standard error
[6] = liver, Day 26, 2 mg/kg I.G. Q.D., HFD+CCL4, mean±standard error
[7] = serum, Day 26, 1 mg/kg I.G. Q.D., HFD+CCL4, mean±standard error

[2H]C([2H])([2H])C(c1c(C)c(Oc2c(Cl)cc(-n3nc(CF)c(=O)[nH]c3=O)cc2Cl)n[nH]c1=O)C([2H])([2H])[2H] [Compound 6]
area proportion of lipid droplets in the liver (oil red O) compared with the model group G2 (NASH model of B-DIO mice; G4, 0.3 mg/kg): decreased significantly | liver fibrosis (Sirius red) compared with the model group G2 (NASH model of B-DIO mice; G4, 0.3 mg/kg): certain improvement effects on liver fibrosis | effects of reducing liver fat accumulation and inhibiting liver fibroplasia compared with Resmetirom (G3) (NASH model of B-DIO mice; G4-G6 (0.3, 1, 2 mg/kg) versus Resmetirom 3 mg/kg, result in words): better effects of reducing liver fat accumulation and inhibiting liver fibroplasia than Resmetirom | area proportion of lipid droplets in the liver (oil red O) compared with the model group G2 (NASH model of B-DIO mice; G5, 1 mg/kg): decreased significantly | liver fibrosis (Sirius red) compared with the model group G2 (NASH model of B-DIO mice; G5, 1 mg/kg): certain improvement effects on liver fibrosis | area proportion of lipid droplets in the liver (oil red O) compared with the model group G2 (NASH model of B-DIO mice; G6, 2 mg/kg): decreased significantly | liver fibrosis (Sirius red) compared with the model group G2 (NASH model of B-DIO mice; G6, 2 mg/kg): certain improvement effects on liver fibrosis | decrease of liver TC compared with the model group G2 (NASH model of B-DIO mice; group G4, 0.3 mg/kg, Day 26): 24.9% | decrease of liver TG compared with the model group G2 (NASH model of B-DIO mice; group G6, 2 mg/kg, Day 26): 35.9% | TC (NASH model of B-DIO mice; [4]): 46.76 ± 1.53 µmol/g | TG (NASH model of B-DIO mice; [4]): 59.02 ± 2.79 µmol/g | TC (NASH model of B-DIO mice; [5]): 46.35 ± 1.39 µmol/g | TG (NASH model of B-DIO mice; [5]): 54.34 ± 2.45 µmol/g | TC (NASH model of B-DIO mice; [6]): 44.99 ± 1.87 µmol/g | TG (NASH model of B-DIO mice; [6]): 54.34 ± 3.54 µmol/g | TG (NASH model of B-DIO mice; serum, Day 26, 0.3 mg/kg I.G. Q.D., HFD+CCL4, mean±standard error): 1.03 ± 0.06 mM | ALT (U/L) (NASH model of B-DIO mice; [7]): 1080.58±88.36 U/L | AST (U/L) (NASH model of B-DIO mice; [7]): 501.72±42.35* *** U/L | TG (NASH model of B-DIO mice; [7]): 1.06 ± 0.07 mM | TG (NASH model of B-DIO mice; serum, Day 26, 2 mg/kg I.G. Q.D., HFD+CCL4, mean±standard error): 1.06 ± 0.09 mM | liver distribution [1]: significant liver distribution advantage over Resmetirom and the compound X1; also recorded: significant liver distribution advantage over Resmetirom and a compound X1 | half-life [2]: 7.8 h | Monooxidized metabolite percent content (%) [3]: 3.0% | Monooxidized metabolite percent content (%) ([3]; listed as compound 6): 3%
